Measurements: patent US6905852B1, “Herbicide-resistant protoporphyrinogen oxidase isolated from Nicotiana tabacum” (Nihon Nohyaku Co., Ltd., priority 1997, dated 2005)

Assays:
[1] = test system: transformed tobacco plant, Arabidopsis thaliana wild type (pBI-AtPX-HC); assay: Leaf disk method, bleaching; assay type: cell-based, N. Tabacum var. SR1
Description: (§1) The A. tumefacience having the binary vector which had been stored at −80° C. was cultured with shaking at 27° C. for 24 hours in 523 liquid medium (1% sucrose, 0.8% Bacto-tryptone, 0.4% Bacto-yeast extract, 0.2% K2HPO4, 0.03% MgSO4.7H2O) containing kanamycin. A disk (9 mm diameter) of a tobacco (N. Tabacum var. SR1) leaf which had been surface sterilized was immersed for one minute into the culture of the A. tumefacience, and then the culture liquid attached thereon was removed with a sterilized paper towel. The leaf disk was transferred into MS agar medium containing 0.6% agar in which 2 ppm NAA and 0.2 ppm BA were added, with the reverse side of leaf being made upside, and incubated at 25° C. for 48 hours. The leaf disk was transferred into MS liquid medium containing 500 ppm carbenicillin, 200 ppm claforan, 2 ppm NAA and 0.2 ppm BA and cultured with shaking at 27° C. for 48-72 hours to remove A. tumefacience. The leaf disk was transferred into MS liquid medium containing 0.6% agar, 100 ppm of carbenycillin, 200 ppm of claforan and 150 ppm of kanamycin, 2 ppm NAA and 0.2 ppm BA and incubated at 27° C. for 2-3 weeks and formation of shoot was induced. The shoot was transferred into medium for root development (½ MS, 0.02 ppm IBA, 1.5% sucrose, 0.2% gellan gum) and development of root was introduced. The young plant thus obtained was transferred into culture soil, and was grown in a green house.
(§2) From the transformed plant with which the confirmation of introduction of gene was finished, and non-transformed plant used as a control, a leaf almost the same position of the leaf was picked and 9 mm diameter leaf disks were prepared, and floated on a dish in which 0, 125, 250, 1,250, 2,500, 5,000, 12,500 nM of compound A aqueous solution were contained. After incubation at 27° C. for one week under continuous strong light, the bleaching of the leaf disks was observed, and the permissive concentration to compound A was calculated. As a result (Table 7), in case that the tolerant type of protoporphirinogen oxidase cDNA from tobacco was introduced by pBI-NtPX-RC, more than 100 times of tolerance was observed comparing to the control non-transformed plant. However, in case that rsistant type cDNA from Arabidopsis thaliana was introduced by pBI-AtPX-RC, 4 times of resistance was observed comparing to the control, and in case that the wild type cDNA was introduced, high resistance was not observed in each case.

[2] = test system: transformed tobacco plant, Tobacco wild type (pBI-NtPX-HC); assay: Leaf disk method, bleaching; assay type: cell-based, N. Tabacum var. SR1
Description: as §1, §2

[3] = test system: transformed tobacco plant, Arabidopsis thaliana resistant type (pBI-AtPX-RC); assay: Leaf disk method, bleaching; assay type: cell-based, N. Tabacum var. SR1
Description: as §1, §2

[4] = biological target: T1, E. coli SASX38 strain having pCR-HC with tobacco wild type protoporphyrinogen oxidase cDNA (Nicotiana tabacum, UniProt O24163); assay: Growth inhibition of E. coli SASX38 (liquid culture with shaking); assay type: cell-based; details: E. coli containing pCR-HC; read-out: IC50, growth of E. coli inhibited by 50%
T1 construct: expressed in transfected cells; host or cells: E. coli SASX38 (hemG-deficient) carrying pCR-HC
T1 sequence (O24163 51-548): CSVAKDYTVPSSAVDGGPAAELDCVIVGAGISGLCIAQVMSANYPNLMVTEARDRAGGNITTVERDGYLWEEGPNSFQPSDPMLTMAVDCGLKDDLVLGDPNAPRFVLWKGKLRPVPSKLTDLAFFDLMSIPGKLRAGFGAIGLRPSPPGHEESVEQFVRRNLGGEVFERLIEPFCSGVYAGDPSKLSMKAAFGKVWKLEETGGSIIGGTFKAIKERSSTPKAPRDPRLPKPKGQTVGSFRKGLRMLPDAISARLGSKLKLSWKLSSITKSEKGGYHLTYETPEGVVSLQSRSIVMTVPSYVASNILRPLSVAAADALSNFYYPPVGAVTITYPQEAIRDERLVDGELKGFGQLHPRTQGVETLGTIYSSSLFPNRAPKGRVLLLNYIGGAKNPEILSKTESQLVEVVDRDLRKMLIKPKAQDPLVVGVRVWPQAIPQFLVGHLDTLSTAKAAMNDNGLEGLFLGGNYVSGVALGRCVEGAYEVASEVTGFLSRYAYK
Description: (§3) The E. coli SASX38 strain containing either of the above-described two kinds of plasmid was cultured with shaking in LB liquid medium containing 50 μg/ml of ampicillin at 28° C. for overnight.

[5] = biological target: T2, E. coli SASX38 strain having pBAtPX-C with Arabidopsis thaliana wild type protoporphyrinogen oxidase gene (Arabidopsis thaliana, UniProt P55826); assay: as above; assay type: cell-based; details: Arabidopsis thaliana wild type (pBAtPX-C); read-out: IC50, growth of E. coli
T2 construct: expressed in transfected cells; host or cells: E. coli SASX38 (hemG-deficient) carrying pBAtPX-C (pBluescript SK(-))
T2 sequence (P55826 35-537): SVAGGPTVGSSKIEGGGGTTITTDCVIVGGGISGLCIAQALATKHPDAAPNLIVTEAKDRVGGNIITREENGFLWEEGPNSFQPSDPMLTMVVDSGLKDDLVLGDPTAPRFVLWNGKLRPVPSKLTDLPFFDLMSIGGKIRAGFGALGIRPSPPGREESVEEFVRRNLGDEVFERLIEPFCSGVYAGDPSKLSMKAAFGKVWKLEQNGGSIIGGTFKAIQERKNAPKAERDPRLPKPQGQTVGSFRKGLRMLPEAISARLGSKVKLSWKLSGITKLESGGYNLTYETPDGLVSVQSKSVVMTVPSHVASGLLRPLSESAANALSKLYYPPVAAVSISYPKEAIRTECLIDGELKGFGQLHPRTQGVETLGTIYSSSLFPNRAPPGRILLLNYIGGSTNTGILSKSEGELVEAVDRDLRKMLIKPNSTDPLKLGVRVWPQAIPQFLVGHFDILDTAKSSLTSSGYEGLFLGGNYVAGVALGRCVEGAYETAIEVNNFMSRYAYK
Description: as §3

[6] = test system: E. coli SASX38 strain having pCR-RC with tobacco resistant type protoporphyrinogen oxidase gene; assay: as above; assay type: cell-based, Nicotiana tabacum; details: tobacco
Description: as §3

[7] = biological target: T3, E. coli SASX38 strain having pBAtPX-RC with Arabidopsis thaliana resistant type protoporphyrinogen oxidase cDNA (Arabidopsis thaliana, UniProt P55826, A220V); assay: as above; assay type: cell-based
T3 construct: expressed in transfected cells; host or cells: E. coli SASX38 (hemG-deficient) carrying pBAtPX-RC (pBluescript SK(-))
T3 sequence (P55826 35-537 A220V): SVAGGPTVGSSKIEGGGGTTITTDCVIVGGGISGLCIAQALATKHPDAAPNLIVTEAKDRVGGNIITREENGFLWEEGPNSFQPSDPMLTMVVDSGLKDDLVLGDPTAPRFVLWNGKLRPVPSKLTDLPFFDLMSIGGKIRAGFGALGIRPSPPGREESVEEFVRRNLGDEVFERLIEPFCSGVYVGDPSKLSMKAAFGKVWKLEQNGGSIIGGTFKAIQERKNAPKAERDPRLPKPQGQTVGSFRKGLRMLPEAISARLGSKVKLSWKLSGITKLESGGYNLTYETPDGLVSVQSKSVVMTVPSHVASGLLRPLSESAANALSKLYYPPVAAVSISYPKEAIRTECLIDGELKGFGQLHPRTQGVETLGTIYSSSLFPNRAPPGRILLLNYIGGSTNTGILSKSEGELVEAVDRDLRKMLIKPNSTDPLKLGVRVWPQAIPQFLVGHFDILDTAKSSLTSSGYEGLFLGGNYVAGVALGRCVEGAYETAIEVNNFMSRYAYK
Description: as §3

[8] = biological target: T4, E. coli SASX38 strain having pCR-RC with tobacco resistant type protoporphyrinogen oxidase gene (Nicotiana tabacum, UniProt O24163, A174P/A191P/A231V/T382S); assay: as above; assay type: cell-based
T4 construct: expressed in transfected cells; host or cells: E. coli SASX38 (hemG-deficient) carrying pCR-RC
T4 sequence (O24163 whole entry A174P/A191P/A231V/T382S): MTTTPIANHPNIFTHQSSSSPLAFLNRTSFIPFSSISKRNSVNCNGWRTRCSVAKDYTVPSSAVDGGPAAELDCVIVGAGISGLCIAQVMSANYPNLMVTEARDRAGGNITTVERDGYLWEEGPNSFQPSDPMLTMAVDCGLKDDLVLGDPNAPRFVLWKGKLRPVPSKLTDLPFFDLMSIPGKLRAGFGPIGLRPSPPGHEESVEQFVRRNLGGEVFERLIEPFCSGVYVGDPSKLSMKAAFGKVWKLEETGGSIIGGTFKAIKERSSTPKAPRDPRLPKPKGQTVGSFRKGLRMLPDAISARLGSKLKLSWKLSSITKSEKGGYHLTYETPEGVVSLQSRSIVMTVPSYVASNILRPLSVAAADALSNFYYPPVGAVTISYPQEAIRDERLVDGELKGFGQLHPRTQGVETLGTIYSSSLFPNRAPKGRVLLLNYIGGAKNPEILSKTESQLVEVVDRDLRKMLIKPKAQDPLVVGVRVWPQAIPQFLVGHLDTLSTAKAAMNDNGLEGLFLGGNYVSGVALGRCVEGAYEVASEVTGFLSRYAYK
Description: as §3

SMILES: CCOC(=O)COc1cc(-c2nn(C)c(OC(F)F)c2Cl)c(F)cc1Cl [Compound A, ethyl 2-chloro-5-(4-chloro-5-difluoromethoxy-1-methyl-1H-pyrazol-3-yl)-4-fluorophenoxyacetate]
- Permission conc. to compound A ([1]; Arabidopsis thaliana Wild type (pBI-AtPX-HC)): 250 nM
- Resistance ([1]; Arabidopsis thaliana Wild type, vs non-transformed): 2 X
- Permission conc. to compound A [2]: 500 nM
- Resistance ([2]; vs non-transformed): 4 X
- Permission conc. to compound A ([3]; Arabidopsis thaliana resistant type (pBI-AtPX-RC)): 500 nM
- Resistance ([3]; Arabidopsis thaliana resistant type, vs non-transformed): 4 X
- IC50 [4]: ~2.5 nM
- IC50 [5]: ~5 nM
- R/S ratio (IC50 value of a resistant type/IC50 value in a wild type) [6]: over 4,000
- IC50 [7]: 1500 nM
- R/S ratio (IC50 value of the resistant type/IC50 value of the wild type) ([7]; Arabidopsis thaliana): about 300
- IC50 [8]: ≥ 10000 nM
